According to US20100119595A1, “Monounsaturated fatty acids and perhydrocyclopentanophenanthrene nucleus combination molecules, and their precursors, and the use of all of these as weight-loss agents” (priority 2001, published 2010):

Assay: Dog weight-loss study, 2 hydroxyestrone oleate vs oleoyl-estrone (Example 10)
Assay type: in vivo
Conditions: oral 21 days, 5, 3.33 or 2.5 micromoles/kg vs OE 10 micromoles/kg
From the text: Dogs are selected and initial measurements taken. The initial measurements include weight and electrical impedance for each dog as measured by a standard impedance measuring device with electrodes placed between the front and rear paws. The dogs are placed individually in appropriate cages and allowed an ad libitum diet of standard dog chow and water for a 10-day period. Daily measurements include the following: • 1. Weight • 2. Weight of food consumed • 3. Water consumed, both volume and weight
Every other day, the dogs' electrical impedance is measured as an indicator of fat tissue content and loss. The dogs remain confined with out of cage activity or exercise for the duration of the experiment. This initial 10-day period establishes a pattern and average of weight gain, impedance change, and food and water consumption for each dog. […] This assures the dogs will readily accept the bread ball as a drug delivery device. […]
An appropriate volume of either OE or 2HOE is placed into the center of a thick piece of dense sweet bread (non-porous), carefully rolled into a small ball so none of the compound leaks out, and sprinkled on the outer surface with sugar or syrup as determined above. […] Electrical impedance of each dog is measured every other day.

With CCCCCCCC/C=C\CCCCCCCC(=O)Oc1cc2c(cc1O)[C@H]1CC[C@]3(C)C(=O)CC[C@H]3[C@@H]1CC2 [2HOE, 2 hydroxyestrone oleate] the “weight loss compared with dogs receiving oleoyl-estrone” value was “greater weight loss”.
